The test system of one data set is S. aureus ATCC 29213. Put plainly: MIC, broth microdilution. The following applies: Staphylococcus aureus, ATCC29213; SA = S. aureus ATCC 29213; read-out: MICs. The data set is classed as cell-based, Staphylococcus aureus. The method, then:
(§1) The modified broth microdilution method was used for in vitro evaluation of minimum inhibitory concentration. A small portion of bacterial colony cultivated overnight onto nutrient agar (Oxoid, Basingstoke, UK) with 5% bovine blood was suspended in sterile phosphate-buffered saline to get cell density 0.5 McFarland. This inoculum was diluted to reach the final concentration of bacterial cells 5 × 10^5 CFU/mL in the wells. […] For plates with staphylococci, cation adjusted Mueller–Hinton (CaMH) broth (Oxoid) was used; enterococci were cultivated in brain heart infusion (BHI, Oxoid). […] A drug-free control and a sterility control were included. Inoculated plates were incubated in aerobic atmosphere at 37 °C overnight. […] After evaluation of MICs, 10 µL of aliquots from the wells were put onto Mueller–Hinton agar. The agar plates were cultivated at 37 °C for 24 h. The minimum bactericidal concentration (MBC) was defined as the lowest concentration of the compound that killed 99.9% of the bacteria compared to the starting inoculum.

For data set [1], the system named is methicillin-resistant S. aureus 63718. Put plainly: MIC, broth microdilution. It counts as cell-based, Staphylococcus aureus. As to conditions: Staphylococcus aureus; MRSA1 = S. aureus 63718; read-out: MICs. The protocol: as §1
The test system of data set [2] is methicillin-resistant S. aureus SA 3202. The data set is described as follows: MIC, broth microdilution. It counts as cell-based, Staphylococcus aureus. The following applies: Staphylococcus aureus; MRSA3 = SA 3202; read-out: MICs. The protocol:
as §1

Data set [3] deals with methicillin-resistant S. aureus SA 630. Put plainly: MIC, broth microdilution. It counts as cell-based, Staphylococcus aureus. As to conditions: Staphylococcus aureus; MRSA2 = SA 630; read-out: MICs. The method, then:
as §1

Another data set has as its system E. faecalis ATCC 29212. The data set is described as follows: MIC, broth microdilution. The data set is classed as cell-based, Enterococcus faecalis. The following applies: Enterococcus faecalis, ATCC 29212 / ATCC 29213; EF = E. faecalis ATCC 29213. The method, then: as §1
The test system of data set [4] is vancomycin-resistant enterococci VRE 342B. Put plainly: MIC, broth microdilution. The data set is classed as cell-based, Enterococcus faecalis. As to conditions: Enterococcus; VRE1 = VRE 342B; read-out: MICs. The protocol:
as §1

Data set [5] concerns vancomycin-resistant enterococci VRE 368. Put plainly: MIC, broth microdilution. It counts as cell-based, Enterococcus faecalis. As to conditions: Enterococcus; VRE2 = VRE 368; read-out: MICs. The method, then: as §1
The test system of data set [6] is vancomycin-resistant enterococci VRE 725B. Put plainly: MIC, broth microdilution. The data set is classed as cell-based, Enterococcus faecalis. As to conditions: Enterococcus; VRE3 = VRE 725B; read-out: MICs. The method, then: as §1
Data set [7] deals with Candida albicans CCM 8261. The data set is described as follows: minimum fungistatic concentration, RPMI 1640. It counts as cell-based. As to conditions: CCM8261, CA = C albicans CCM 8261, 48 h. The method, then:
Fungistatic activity was tested similarly in RPMI (Roswell Park Memorial Institute) 1640 medium (Sigma, Pool, UK). […] A growth control and sterility control were included. The colonies of C. albicans grown overnight on Sabourad dextrose agar were suspended in sterile phosphate-buffered saline (PBS) to get cell density 0.5 McFarland. The inoculum was diluted to get a final concentration of 10^3 CFU/mL in the wells. Plates were inoculated and cultivated at 37 °C for 48 h. The minimum fungistatic concentration was visually evaluated as the lowest concentration of a tested compound, which inhibited 100% of yeast growth. 5-Flucytosin (Sigma, UK) was used as a positive control.

Data set [8] concerns human monocytic leukemia THP-1 cells. Put plainly: in vitro antiproliferative assay (WST-1). It counts as cell-based. As to conditions: THP-1 cells, WST-1, 24 h, read-out: Tox IC50. The method, then:
The preliminary in vitro screening of the antiproliferative effect of the investigated compounds was performed using a Water Soluble Tetrazolium salts-1 (WST-1) assay kit and a human monocytic leukemia THP-1 cell line by means of the method described recently. The principle of the WST-1 assay kit is the […] mitochondrial dehydrogenases by antiproliferative compounds. The activity of this enzyme directly correlates with the number of metabolically active cells in the culture. The antiproliferative effect was evaluated as the IC50 value (the concentration of the compound causing 50% inhibition of cell proliferation).
Human monocytic leukemia THP-1 cells were used for in vitro antiproliferative assay. Cells were obtained from the European Collection of Cell Cultures (ECACC, Salisbury, UK) and routinely cultured in RPMI (Roswell Park Memorial Institute) 1640 medium supplemented with 10% fetal bovine serum, 2% L-glutamine, 1% penicillin, and streptomycin at 37 °C with 5% CO2. Cells were passaged at approximately one-week intervals. The antiproliferative activity of the compounds was determined using a Water Soluble Tetrazolium Salts-1 (WST-1, 2-(4-iodophenyl)-3-(4-nitrophenyl)-5-(2,4-disulfophenyl)-2H-tetrazolium) assay kit (Roche Diagnostics, Mannheim, Germany) according to the manufacturer’s instructions. The tested compounds were dissolved in DMSO and added in various compound concentrations to the cell suspension in the culture RPMI 1640 medium. The maximum concentration of DMSO in the assays never exceeded 0.1%. Subsequently, the cells were incubated at 37 °C with 5% CO2 for 24 h. For WST-1 assays, cells were seeded into 96-well plates (5 × 10^4 cells/well in 100 μL culture medium) in triplicate in serum-free RPMI 1640 medium, and measurements were taken 24 h after the treatment with the compounds. The median inhibition concentration values, IC50, were deduced through the production of a dose-response curve. All data were evaluated using GraphPad Prism 5.00 software (GraphPad Software, San Diego, CA, USA).

Details of data set [9]: method as in PMID 30274224. The following applies: isocratic RP-HPLC, extrapolated lipophilicity index; cited from earlier work.
Details of data set [10]: method as in PMID 30274224. As to conditions: cited from earlier work.
On the set-up of data set [11]: method as in PMID 30274224. As to conditions: methanolic solutions, c = 8.0 × 10^−5 M; cited from earlier work.

Molecules are shown by their SMILES. Several values for one entry are separate records, joined by “and”; a condition that tells them apart may be missing. Identical values can stand only once. Like-named read-outs stand apart in the source and are kept apart here.

For `CCCCCOc1ccccc1NC(=O)OC(CN(CCC)CCC)CN1CCCCCC1` (stereo not drawn) [1j], the MIC in the data set with S. aureus ATCC 29213 is > 256 µg/mL and > 398 µM; in data set [1] it was > 256 µg/mL and > 398 µM; in data set [2], > 256 µg/mL and > 398 µM; in [3], > 256 µg/mL and > 398 µM; against E. faecalis ATCC 29212, > 256 µg/mL and > 398 µM; in [4] it was > 256 µg/mL and > 398 µM. For the same compound, the MIC in data set [5] was > 256 µg/mL and > 398 µM; in data set [6], > 256 µg/mL and > 398 µM; in [7], > 128 µg/mL and > 199 µM. For the same compound, the half-inhibitory concentration (IC50) in data set [8] (Homo sapiens, THP-1, 24 h) is 26.4 ± 1.91 µM. Besides, the log kw in [9] is on record as 4.8466. The “γ (surface tension, relative surface activity)” value in data set [10] is given as 0.06206 N/m. Besides, the “log ε2 (Ch-T)” value in data set [11] is reported as 4.22.

Take `CCCCCCOc1ccccc1NC(=O)OC(CN(CCC)CCC)CN1CCCCCC1` (stereo not drawn) [1k]: the MIC in the data set with S. aureus ATCC 29213 was > 256 µg/mL and > 390 µM; in data set [1], > 256 µg/mL and > 390 µM; in [2] it was > 256 µg/mL and > 390 µM; in [3], > 256 µg/mL and > 390 µM; against E. faecalis ATCC 29212 it was > 256 µg/mL and > 390 µM; in data set [4] it was > 256 µg/mL and > 390 µM. The MIC was > 256 µg/mL and > 390 µM in data set [5]; > 256 µg/mL and > 390 µM in [6]; > 128 µg/mL and > 195 µM in [7]. Moreover, the IC50 in data set [8] (Homo sapiens, THP-1, 24 h) came out at 31.2 ± 2.24 µM. Also, the log kw in [9] is reported as 5.2359. Also, in data set [10], the “γ (surface tension, relative surface activity)” value is 0.06065 N/m. Moreover, in data set [11], the “log ε2 (Ch-T)” value is given as 4.10.

Regarding `CCCCCCCOc1ccccc1NC(=O)OC(CN(CCC)CCC)CN1CCCCCC1` (stereo not drawn) [1l], the MIC with S. aureus ATCC 29213 was > 256 µg/mL and > 382 µM; in data set [1] it was > 256 µg/mL and > 382 µM; in [2], > 256 µg/mL and > 382 µM; in data set [3], > 256 µg/mL and > 382 µM; with E. faecalis ATCC 29212, > 256 µg/mL and > 382 µM; in [4], > 256 µg/mL and > 382 µM. The MIC in data set [5] is > 256 µg/mL and > 382 µM; in [6] it was > 256 µg/mL and > 382 µM; in data set [7], > 128 µg/mL and > 191 µM. In addition, the IC50 in [8] (Homo sapiens, THP-1, 24 h) is 29.75 ± 0.14 µM. Moreover, the log kw in data set [9] was 5.8966. Moreover, the “γ (surface tension, relative surface activity)” value in data set [10] is given as 0.05853 N/m. For the same compound, in data set [11], the “log ε2 (Ch-T)” value was 4.14.

Take `CCCCOc1cccc(NC(=O)OC(CN(CCC)CCC)CN2CCCCCC2)c1` (stereo not drawn) [1m]: the MIC with S. aureus ATCC 29213 is 128 µg/mL and 245 µM; in [1] it was 32 µg/mL and 61.5 µM; in data set [2], 64 µg/mL and 122 µM; in [3] it was 64 µg/mL and 122 µM; in the data set on E. faecalis ATCC 29212 it was 32 µg/mL and 61.5 µM; in data set [4] it was 32 µg/mL and 61.5 µM. Also, the MIC in data set [5] is 64 µg/mL and 122 µM; in [6], 16 µg/mL and 30.7 µM; in data set [7] it was > 128 µg/mL and > 245 µM. The IC50 in data set [8] (Homo sapiens, THP-1, 24 h) was 4.9 ± 0.19 µM. For the same compound, in data set [9], the log kw is 4.7099. The “γ (surface tension, relative surface activity)” value in data set [10] was 0.06298 N/m. Moreover, the “log ε2 (Ch-T)” value in data set [11] is reported as 4.09.

Take `CCCCCOc1cccc(NC(=O)OC(CN(CCC)CCC)CN2CCCCCC2)c1` (stereo not drawn) [1n]: the MIC is 128 µg/mL and 239 µM in the data set on S. aureus ATCC 29213; 64 µg/mL and 119 µM in data set [1]; 256 µg/mL and 478 µM in data set [2]; 128 µg/mL and 239 µM in [3]; 16 µg/mL and 29.9 µM against E. faecalis ATCC 29212; 32 µg/mL and 59.9 µM in [4]. Besides, the MIC in data set [5] is 64 µg/mL and 119 µM; in data set [6], 16 µg/mL and 29.9 µM; in [7] it was > 128 µg/mL and > 239 µM. Also, the IC50 in [8] (Homo sapiens, THP-1, 24 h) amounted to 4.99 ± 0.99 µM. The log kw in data set [9] was 5.2087. In [10], the “γ (surface tension, relative surface activity)” value is 0.06154 N/m. Further, the “log ε2 (Ch-T)” value in data set [11] is recorded as 4.18.

As to `CCCCCCOc1cccc(NC(=O)OC(CN(CCC)CCC)CN2CCCCCC2)c1` (stereo not drawn) [1o], the MIC with S. aureus ATCC 29213 was > 256 µg/mL and > 466 µM; in data set [1], 128 µg/mL and 233 µM; in [2], > 256 µg/mL and > 466 µM; in data set [3], > 256 µg/mL and > 466 µM; with E. faecalis ATCC 29212, 16 µg/mL and 29.2 µM; in data set [4] it was 32 µg/mL and 58.3 µM. Moreover, the MIC was 256 µg/mL and 466 µM in data set [5]; 8 µg/mL and 14.6 µM in data set [6]; > 128 µg/mL and > 233 µM in [7]. In addition, the half-inhibitory concentration (IC50) in [8] (Homo sapiens, THP-1, 24 h) was less than 6.5 µM; in [8], 4.71 ± 0.07 µM. The log kw in data set [9] is reported as 5.6569. For the same compound, the “γ (surface tension, relative surface activity)” value in data set [10] is listed as 0.05925 N/m. Also, the “log ε2 (Ch-T)” value in [11] is given as 4.01.

`CCCCCCCOc1cccc(NC(=O)OC(CN(CCC)CCC)CN2CCCCCC2)c1` (stereo not drawn) [1p]: the MIC was > 256 µg/mL and > 455 µM in the data set with S. aureus ATCC 29213; 256 µg/mL and 455 µM in [1]; > 256 µg/mL and > 455 µM in [2]; > 256 µg/mL and > 455 µM in data set [3]; 8 µg/mL and 14.2 µM in the data set on E. faecalis ATCC 29212; 64 µg/mL and 113 µM in [4]. Further, the MIC in [5] is 256 µg/mL and 455 µM; in [6], 16 µg/mL and 28.4 µM; in data set [7], > 128 µg/mL and > 227 µM. The IC50 in data set [8] (Homo sapiens, THP-1, 24 h) was less than 6.5 µM; in [8], 6.32 ± 0.58 µM. In addition, the log kw in data set [9] was 6.1749. Also, in [10], the “γ (surface tension, relative surface activity)” value is reported as 0.05692 N/m. In [11], the “log ε2 (Ch-T)” value was 4.20.

These data come from PMC7168207, “Dibasic Derivatives of Phenylcarbamic Acid as Prospective Antibacterial Agents Interacting with Cytoplasmic Membrane” (Antibiotics, 2020).
